Assay results reported in PMC8717171 (Saudi Journal of Biological Sciences, 2021).
≈ marks a conversion by molar mass, not a printed value. Where “and” joins values, the source holds several entries; their conditions need not be identical. Equal values may be shown once. Read-outs that look alike come from different tables or passages of the source.

Legend:
[1] = Antioxidant activity, DPPH free radical scavenging; assay type: biochemical; settings: absorbance at 517 nm
[2] = tested on: non-enzymatic lipid peroxidation in rat brain homogenate; assay: In-vitro lipid peroxidation inhibition; settings: Fe2+-ascorbate
acetylcholinesterase = target: T1, acetylcholinesterase (Rattus norvegicus, UniProt P37136); assay: In-vitro anti-acetylcholinesterase activity; assay type: biochemical
T1 sequence (P37136 32-614): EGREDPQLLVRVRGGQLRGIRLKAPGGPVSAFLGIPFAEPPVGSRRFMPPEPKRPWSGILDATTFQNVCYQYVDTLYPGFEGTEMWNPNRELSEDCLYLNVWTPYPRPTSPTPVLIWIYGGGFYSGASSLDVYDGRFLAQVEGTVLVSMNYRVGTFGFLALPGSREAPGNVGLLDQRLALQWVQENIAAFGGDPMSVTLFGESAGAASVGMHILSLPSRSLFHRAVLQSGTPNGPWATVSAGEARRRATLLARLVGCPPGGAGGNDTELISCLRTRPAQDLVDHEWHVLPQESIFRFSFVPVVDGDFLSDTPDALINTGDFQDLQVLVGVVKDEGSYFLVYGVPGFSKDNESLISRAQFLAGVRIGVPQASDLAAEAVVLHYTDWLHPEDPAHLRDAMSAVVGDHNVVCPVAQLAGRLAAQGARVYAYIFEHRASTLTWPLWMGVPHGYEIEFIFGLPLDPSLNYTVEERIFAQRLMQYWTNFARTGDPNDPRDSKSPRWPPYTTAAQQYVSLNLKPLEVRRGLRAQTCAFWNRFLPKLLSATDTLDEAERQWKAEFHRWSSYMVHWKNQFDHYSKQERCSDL

butyrylcholinesterase = butyrylcholinesterase (Rattus norvegicus, UniProt Q9JKC1); assay: In-vitro anti-butyrylcholinesterase activity; assay type: biochemical
Chain of butyrylcholinesterase (Q9JKC1 24-597): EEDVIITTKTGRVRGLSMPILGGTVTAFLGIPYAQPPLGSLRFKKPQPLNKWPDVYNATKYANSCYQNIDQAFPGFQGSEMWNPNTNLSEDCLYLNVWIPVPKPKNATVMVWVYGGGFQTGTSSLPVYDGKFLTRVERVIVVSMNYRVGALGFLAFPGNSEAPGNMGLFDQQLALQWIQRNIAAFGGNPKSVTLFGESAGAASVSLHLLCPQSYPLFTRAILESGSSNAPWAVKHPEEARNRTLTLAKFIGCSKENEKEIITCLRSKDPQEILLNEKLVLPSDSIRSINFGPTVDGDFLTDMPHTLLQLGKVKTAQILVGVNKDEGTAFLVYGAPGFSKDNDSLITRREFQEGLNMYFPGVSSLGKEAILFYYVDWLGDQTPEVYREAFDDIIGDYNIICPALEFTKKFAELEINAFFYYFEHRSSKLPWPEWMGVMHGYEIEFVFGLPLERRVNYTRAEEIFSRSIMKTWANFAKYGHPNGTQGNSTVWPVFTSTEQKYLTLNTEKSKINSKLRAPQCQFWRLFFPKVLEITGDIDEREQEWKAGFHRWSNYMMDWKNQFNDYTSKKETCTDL

microbial strains = assay: Antimicrobial disc diffusion, all test strains together; assay type: cell-based
rat hind paw oedema = assay: Anti-inflammatory activity, carrageenan-induced rat hind paw oedema; assay type: in vivo, Sprague Dawley rat; settings: test compounds 100 mg/kg; for Mean paw edema (volume in ml) ± SEM: n = 5
mice = assay: Peripheral anti-nociception, acetic acid-induced writhing; assay type: in vivo, Mus musculus; settings: for Number of Writhing (Mean ± SEM): counted for 15 min, n = 5
Swiss-albino mice = settings: mouse, in vivo, po; for Reaction time: 25 mg/kg
Aspergillus niger = assay: Disc diffusion; assay type: cell-based; settings: standard Ciprofloxacin 5 µg/disc
Bacillus cereus = assay: Disc diffusion; assay type: cell-based; settings: standard Ciprofloxacin 5 µg/disc
Staphylococcus aureus = assay: Disc diffusion; assay type: cell-based; settings: standard Ciprofloxacin 5 µg/disc
Salmonella paratyphi = assay: Disc diffusion; assay type: cell-based; settings: standard Ciprofloxacin 5 µg/disc
Shigella dysenteriae = assay: Disc diffusion; assay type: cell-based; settings: standard Ciprofloxacin 5 µg/disc
Shigella boydii = assay: Disc diffusion; assay type: cell-based; settings: standard Ciprofloxacin 5 µg/disc
Vibrio mimicus = assay: Disc diffusion; assay type: cell-based; settings: standard Ciprofloxacin 5 µg/disc
Salmonella typhi = assay: Disc diffusion; assay type: cell-based; settings: standard Ciprofloxacin 5 µg/disc
Escherichia coli = assay: Disc diffusion; assay type: cell-based; settings: standard Ciprofloxacin 5 µg/disc
Saccharomyces cerevisiae = assay: Disc diffusion; assay type: cell-based; settings: standard Ciprofloxacin 5 µg/disc
Bacillus subtilis = assay: Disc diffusion; assay type: cell-based; settings: standard Ciprofloxacin 5 µg/disc
Vibrio parahaemolyticus = assay: Disc diffusion; assay type: cell-based; settings: standard Ciprofloxacin 5 µg/disc
Candida albicans = assay: Disc diffusion; assay type: cell-based; settings: standard Ciprofloxacin 5 µg/disc
Sarcina lutea = assay: Disc diffusion; assay type: cell-based; settings: standard Ciprofloxacin 5 µg/disc
Pseudomonas aeruginosa = assay: Disc diffusion; assay type: cell-based; settings: standard Ciprofloxacin 5 µg/disc
Bacillus megaterium = assay: Disc diffusion; assay type: cell-based; settings: standard Ciprofloxacin 5 µg/disc

| Structure (SMILES) | IC50 (antioxidant activity, DPPH scavenging) [1] | IC50 (lipid peroxidation inhibition) [2] | IC50 (acetylcholinesterase) | antimicrobial activity (in words) (microbial strains) | % Paw edema inhibition (rat hind paw oedema; 1st hour) | Mean paw edema (volume in ml) ± SEM (rat hind paw oedema; 1st hour) | % Paw edema inhibition (rat hind paw oedema; 2nd hour) | Mean paw edema (volume in ml) ± SEM (rat hind paw oedema; 2nd hour) | % Paw edema inhibition (rat hind paw oedema; 3rd hour) | Mean paw edema (volume in ml) ± SEM (rat hind paw oedema; 3rd hour) | % Paw edema inhibition (rat hind paw oedema; 4th hour) | Mean paw edema (volume in ml) ± SEM (rat hind paw oedema; 4th hour) | % of Inhibition of Writhing (mice; 25 mg/kg) | Number of Writhing (Mean ± SEM) (mice; 25 mg/kg) | % of Inhibition of Writhing (mice; 50 mg/kg) | Number of Writhing (Mean ± SEM) (mice; 50 mg/kg) | further results |
| --- | --- | --- | --- | --- | --- | --- | --- | --- | --- | --- | --- | --- | --- | --- | --- | --- | --- |
| Cc1cc(C(C)(C)C)c(O)c(C(C)(C)C)c1 [BHT, tert-butyl-1-hydroxytoluene, reference compound] | 14.44 µg/mL (≈ 65.5 µM) | – | – | – | – | – | – | – | – | – | – | – | – | – | – | – | – |
| O.Oc1cc(O)c2c(c1)O[C@H](c1ccc(O)c(O)c1)[C@@H](O)C2 [Catechin, reference compound] | – | 59.36 µg/mL | – | – | – | – | – | – | – | – | – | – | – | – | – | – | – |
| Oc1ccc(Cn2c(-c3ccc(O)cc3)nc3ccccc32)cc1 [Compound 3a, 1-(4-hydroxybenzyl)-2-(4-hydroxyphenyl)-1H-benzimidazole] | 16.73 µg/mL (≈ 52.9 µM) | 75.53 µg/mL (≈ 239 µM) | 231 µM | did not show any antimicrobial activity | 34.75% | 0.768 ± 0.0575 mL | 36.07% | 0.78 ± 0.023 mL | 38.93% | 0.80 ± 0.043 mL | 37.59% | 0.88 ± 0.034 mL | 49.25% | 13.6 ± 0.430 | 29.10% | 19.0 ± 1.649 | IC50 (butyrylcholinesterase): 49.1 µM |
| Clc1ccc(Cn2c(-c3ccc(Cl)cc3)nc3ccccc32)cc1 [Compound 3b, 1-(4-chlorobenzyl)-2-(4-chlorophenyl)-1H-benzimidazole] | – | – | 187 µM | did not show any antimicrobial activity | 38.98% | 0.724 ± 0.057 mL | 40.16% | 0.73 ± 0.029 mL | 41.98% | 0.76 ± 0.048 mL | 44.68% | 0.78 ± 0.056 mL | 26.87% | 19.6 ± 0.797 | 13.43% | 23.2 ± 0.464 | IC50 (butyrylcholinesterase): 66.3 µM |
| COc1ccc(Cn2c(-c3ccc(OC)cc3)nc3ccccc32)cc1 [Compound 3c, 1-(4-methoxybenzyl)-2-(4-methoxyphenyl)-1H-benzimidazole] | 634.22 µg/mL (≈ 1840 µM) | – | – | did not show any antimicrobial activity | 35.59% | 0.758 ± 0.035 mL | 35.25% | 0.79 ± 0.043 mL | 37.40% | 0.82 ± 0.022 mL | 37.59% | 0.88 ± 0.046 mL | 54.10% | 12.3 ± 0.831 | 42.54% | 15.4 ± 0.697 | Reaction time (Swiss-albino mice): 9.8 ± 0.86 and 10.2 ± 0.86 and 10.6 ± 0.68 and 11.8 ± 0.66; % Elongation value (Swiss-albino mice; 50 mg/kg): 42.86% and 44.19% and 50% and 44.23% |
| Clc1ccc(-c2nc3ccccc3[nH]2)cc1 [Compound 4, 2-(4-chlorophenyl)-1H-benzimidazole] | 114.18 µg/mL (≈ 499 µM) | 98.55 µg/mL (≈ 431 µM) | – | – | 28.81% | 0.838 ± 0.051 mL | 27.87% | 0.88 ± 0.027 mL | 29.77% | 0.92 ± 0.017 mL | 36.88% | 0.89 ± 0.033 mL | 2.99% | 26.0 ± 1.001 | 13.81% | 23.1 ± 0.843 | Diameter of zone of inhibition (mm) (Aspergillus niger): 10 mm; Diameter of zone of inhibition (mm) (Bacillus cereus): 7 mm; Diameter of zone of inhibition (mm) (Staphylococcus aureus): 0 mm; Diameter of zone of inhibition (mm) (Salmonella paratyphi): 0 mm; Diameter of zone of inhibition (mm) (Shigella dysenteriae): 8 mm; Diameter of zone of inhibition (mm) (Shigella boydii): 9 mm; Diameter of zone of inhibition (mm) (Vibrio mimicus): 0 mm; Reaction time (Swiss-albino mice): 9.4 ± 0.93 and 8.8 ± 1.24 and 10.6 ± 0.68 and 12.6 ± 0.93; Diameter of zone of inhibition (mm) (Salmonella typhi): 9 mm; Diameter of zone of inhibition (mm) (Escherichia coli): 10 mm; peripheral analgesic activity (in words) (mice; 25 mg/kg and 50 mg/kg): did not show any peripheral analgesic activity; Diameter of zone of inhibition (mm) (Saccharomyces cerevisiae): 9 mm; Diameter of zone of inhibition (mm) (Bacillus subtilis): 9 mm; Diameter of zone of inhibition (mm) (Vibrio parahaemolyticus): 7 mm; Diameter of zone of inhibition (mm) (Candida albicans): 0 mm; Diameter of zone of inhibition (mm) (Sarcina lutea): 7 mm; Diameter of zone of inhibition (mm) (Pseudomonas aeruginosa): 8 mm; Diameter of zone of inhibition (mm) (Bacillus megaterium): 9 mm |
| c1ccc(COCc2nc3ccccc3[nH]2)cc1 [Compound 6, 2-((benzyloxy)-methyl)-1H-benzimidazole] | 579.19 µg/mL (≈ 2430 µM) | – | 124 µM | – | 22.88% | 0.906 ± 0.047 mL | 23.77% | 0.93 ± 0.028 mL | 25.19% | 0.98 ± 0.018 mL | 31.91% | 0.96 ± 0.039 mL | 37.69% | 16.7 ± 0.889 | 55.60% | 11.9 ± 0.458 | Diameter of zone of inhibition (mm) (Aspergillus niger): 0 mm; Diameter of zone of inhibition (mm) (Bacillus cereus): 8 mm; Diameter of zone of inhibition (mm) (Staphylococcus aureus): 7 mm; Diameter of zone of inhibition (mm) (Salmonella paratyphi): 8 mm; Diameter of zone of inhibition (mm) (Shigella dysenteriae): 0 mm; Diameter of zone of inhibition (mm) (Shigella boydii): 7 mm; Diameter of zone of inhibition (mm) (Vibrio mimicus): 9 mm; Diameter of zone of inhibition (mm) (Salmonella typhi): 8 mm; Diameter of zone of inhibition (mm) (Escherichia coli): 0 mm; Diameter of zone of inhibition (mm) (Saccharomyces cerevisiae): 7 mm; Diameter of zone of inhibition (mm) (Bacillus subtilis): 10 mm; Diameter of zone of inhibition (mm) (Vibrio parahaemolyticus): 10 mm; Diameter of zone of inhibition (mm) (Candida albicans): 0 mm; Diameter of zone of inhibition (mm) (Sarcina lutea): 7 mm; Diameter of zone of inhibition (mm) (Pseudomonas aeruginosa): 7 mm; Diameter of zone of inhibition (mm) (Bacillus megaterium): 7 mm |
| O=C(O)Cc1ccccc1Nc1c(Cl)cccc1Cl [Diclofenac sodium, diclofenac sodium, reference compound] | – | – | – | – | 23.73% | – | 31.15% | – | 38.93% | – | 45.39% | – | – | – | – | – | % of Inhibition of Writhing (mice; standard diclofenac sodium, dose column 0.1 ml/10 g (method: 25 mg/kg)): 91.79% |
| CN1CC[C@]23c4c5ccc(O)c4O[C@H]2[C@@H](O)C=C[C@H]3[C@H]1C5 [morphine, Morphine, reference compound] | – | – | – | – | – | – | – | – | – | – | – | – | – | – | – | – | % Elongation value (Swiss-albino mice): 48.08% and 82.5% |
